Source: patent US20230158063A1, “AIRWAY […] THERAPY TO TREAT VIRAL R[…]” (THE TRUSTEES OF INDIANA UNIVERSITY, priority 2020, published 2023)

System: primary normal human airway epithelial (HAE) cells
Assay: Intracellular pH of HAE cells by pH-sensitive dye fluorescence microscopy
Assay type: cell-based
Conditions: HAE cells pre-loaded with 1.25 μM BCECF-AM; normalized to pre-treatment; n=3; ZnCl2 at 100 μM

[Cl-].[Cl-].[Zn+2] [ZnCl2, zinc chloride]
BCECF-AM fluorescence intensity (increases as pH increases): essentially eliminating fluorescence
